Source: patent US10906940B2, “Antimicrobial peptides, pharmaceutical compositions, and methods of use thereof” (priority 2014, dated 2021)
Values after ≈ are worked out from the molar mass of the structure shown. Where a SMILES comes first, the peptide text is derived from it. Bridges are numbered along the chain shown (N, C = ends). [ ]: non-standard residue; d: D form. The star is where a group is joined. Pentadecanoyl = CCCCCCCCCCCCCCC(=O)*; Tridecanoyl = CCCCCCCCCCCCC(=O)*; Undecanoyl = CCCCCCCCCCC(=O)*; dOrn = NCCC[C@@H](N)C(=O)O

How the values were obtained:
E. faecium ATCC 700221 = assay: microbe, parasite or virus in culture; type: cell-based; conditions: ATCC 700221
From the text: (§1) The same MIC assay as in Example 6 was used to determine the antimicrobial susceptibility of Compound A, L-form (FIG. 15), and several variants. One variant was Compound A, D-form, with D-Lysine at position 7. Compound B is a variant in the fatty acid chain, with a fatty acid chain composition of C15H29O, and having D-Lys at position 7. Compound C is a variant in the fatty acid chain with a fatty acid chain composition of C11H21O, and having D-Lys at position 7. Variant D is a sequence variant with Phe at position 6 of the cyclic peptide, and having D-Lys at position 7. All variants were chemically synthesized.

E. faecium ATCC 2320 = assay: microbe, parasite or virus in culture; type: cell-based; conditions: ATCC 2320
From the text: as §1

E. faecium BAA-2318 = assay: microbe, parasite or virus in culture; type: cell-based; conditions: BAA-2318
From the text: as §1

[1] = test system: K. pneumoniae CVM 9246 (shv18, oxa2); type: cell-based, Klebsiella pneumoniae
From the text: as §1

[2] = test system: K. pneumonia CVM 15105 (shv5); type: cell-based, Klebsiella pneumoniae
From the text: as §1

[3] = test system: K. pneumoniae CVM 15102 (shv5); type: cell-based, Klebsiella pneumoniae
From the text: as §1

[4] = test system: K. pneumonia CVM 40142 (ges-1); type: cell-based, Klebsiella pneumoniae
From the text: as §1

[5] = test system: P. aeruginosa CVM 40144 (PER-1); type: cell-based, Pseudomonas aeruginosa
From the text: as §1

E. faecalis BAA-2365 = assay: microbe, parasite or virus in culture; type: cell-based, Enterococcus faecalis; conditions: BAA-2365
From the text: as §1

E. faecalis ATCC 51575 = assay: microbe, parasite or virus in culture; type: cell-based, Enterococcus faecalis; conditions: ATCC 51575
From the text: as §1

[6] = test system: S. Bareilly CVM40145 (ACC-1); type: cell-based, Salmonella
From the text: as §1

[7] = test system: S. Newport CVM 40115 (cmy 2); type: cell-based, Salmonella
From the text: as §1

[8] = test system: S. Heidelberg CVM 40140 (cmy-2); type: cell-based, Salmonella
From the text: as §1

[9] = test system: S. Typhimurium CVM 40117 (ctx-m-5); type: cell-based, Salmonella
From the text: as §1

[10] = test system: S. Keur massar CVM 40135 (shv12); type: cell-based, Salmonella
From the text: as §1

[11] = test system: Klebsiella pneumoniae SBJ-9149; conditions: SBJ-9149
[12] = test system: Enterobacter cloacae SBJ-7612; conditions: SBJ-7612
[13] = test system: Klebsiella pneumoniae SBJ-9483; conditions: SBJ-9483
[14] = test system: Enterobacter cloacae SBJ-9222; conditions: SBJ-9222
E. coli ATCC 25853 = conditions: ATCC 25853
[15] = test system: Klebsiella pneumoniae SBJ-9388; conditions: SBJ-9388
[16] = test system: Enterobacter sakazakii E784
[17] = test system: Listeria monocytogenes R2-583
P. aeruginosa ATCC-27853 = conditions: ATCC-27853
[18] = test system: carbapenem-resistant (CRE) strains and MRSA strains; assay: Broth microdilution MIC, summary of spectrum; type: cell-based

CCCCCCCCCCCCC(=O)N[C@H](CCCN)C(=O)N[C@H](C(=O)N[C@@H]1C(=O)N[C@H](CCCN)C(=O)N[C@@H](CO)C(=O)N[C@@H](Cc2ccc(O)cc2)C(=O)N[C@H](CCCCN)C(=O)N[C@H](CO)C(=O)N[C@@H]([C@@H](C)CC)C(=O)N2CCC[C@H]2C(=O)N[C@@H]([C@@H](C)CC)C(=O)N2CCC[C@H]2C(=O)N[C@@H]([C@@H](C)CC)C(=O)O[C@@H]1C)C(C)C [Compound A D-form] (Tridecanoyl-[dOrn]VT[dOrn]SY[dK][dS]IPIPI; ester 3-C)
MIC (E. faecium ATCC 700221): 8 µg/mL (≈ 4.93 µM)
MIC (E. faecium ATCC 2320): 8 µg/mL (≈ 4.93 µM)
MIC (E. faecium BAA-2318): 4 µg/mL (≈ 2.46 µM)
MIC [1]: 8 µg/mL (≈ 4.93 µM)
MIC [2]: 8 µg/mL (≈ 4.93 µM)
MIC [3]: 8 µg/mL (≈ 4.93 µM)
MIC [4]: 8 µg/mL (≈ 4.93 µM)
MIC [5]: 16 µg/mL (≈ 9.85 µM)
MIC (E. faecalis BAA-2365): 8 µg/mL (≈ 4.93 µM)
MIC (E. faecalis ATCC 51575): 8 µg/mL (≈ 4.93 µM)
MIC [6]: 8 µg/mL (≈ 4.93 µM)
MIC [7]: 8 µg/mL (≈ 4.93 µM)
MIC [8]: 16 µg/mL (≈ 9.85 µM)
MIC [9]: 8 µg/mL (≈ 4.93 µM)
MIC [10]: 16 µg/mL (≈ 9.85 µM)

CCCCCCCCCCCCC(=O)N[C@H](CCCN)C(=O)N[C@H](C(=O)N[C@@H]1C(=O)N[C@H](CCCN)C(=O)N[C@@H](CO)C(=O)N[C@@H](Cc2ccc(O)cc2)C(=O)N[C@@H](CCCCN)C(=O)N[C@H](CO)C(=O)N[C@@H]([C@@H](C)CC)C(=O)N2CCC[C@H]2C(=O)N[C@@H]([C@@H](C)CC)C(=O)N2CCC[C@H]2C(=O)N[C@@H]([C@@H](C)CC)C(=O)O[C@@H]1C)C(C)C [Compound A L-form] (Tridecanoyl-[dOrn]VT[dOrn]SYK[dS]IPIPI; ester 3-C)
MIC [11]: 4 µg/mL (≈ 2.46 µM)
MIC (P. aeruginosa SBJ-10884): 4 µg/mL (≈ 2.46 µM)
MIC (E. faecium ATCC 700221): 4 µg/mL (≈ 2.46 µM)
MIC (E. faecium ATCC 2320): 4 µg/mL (≈ 2.46 µM)
MIC (E. faecium BAA-2318): 4 µg/mL (≈ 2.46 µM)
MIC [1]: 8 µg/mL (≈ 4.93 µM)
MIC [2]: 8 µg/mL (≈ 4.93 µM)
MIC [3]: 8 µg/mL (≈ 4.93 µM)
MIC [4]: 8 µg/mL (≈ 4.93 µM)
MIC (E. faecalis ATCC 29212): 4 µg/mL (≈ 2.46 µM)
MIC (S. aureus ATCC 29213): 4 µg/mL (≈ 2.46 µM)
MIC (Salmonella Newport #17): 16 µg/mL (≈ 9.85 µM)
MIC (S. aureus ATCC25923): 2 µg/mL (≈ 1.23 µM)
MIC [5]: 32 µg/mL (≈ 19.7 µM)
MIC [12]: 4 µg/mL (≈ 2.46 µM)
MIC (E. faecalis BAA-2365): 8 µg/mL (≈ 4.93 µM)
MIC (E. faecalis ATCC 51575): 8 µg/mL (≈ 4.93 µM)
MIC [13]: 4 µg/mL (≈ 2.46 µM)
MIC [6]: 16 µg/mL (≈ 9.85 µM)
MIC [7]: 8 µg/mL (≈ 4.93 µM)
MIC [8]: 16 µg/mL (≈ 9.85 µM)
MIC [9]: 8 µg/mL (≈ 4.93 µM)
MIC [10]: 16 µg/mL (≈ 9.85 µM)
MIC (P. aeruginosa SBJ-10886): 4 µg/mL (≈ 2.46 µM)
MIC [14]: 8 µg/mL (≈ 4.93 µM)
MIC (E. coli ATCC 25853): 4 µg/mL (≈ 2.46 µM)
MIC (P. aeruginosa -01): 8 µg/mL (≈ 4.93 µM)
MIC (E. coli O157: H7 EDL933): 4 µg/mL (≈ 2.46 µM)
MIC [15]: 4 µg/mL (≈ 2.46 µM)
MIC [16]: 8 µg/mL (≈ 4.93 µM)
MIC [17]: 2 µg/mL (≈ 1.23 µM)
MIC (P. aeruginosa ATCC-27853): 8 µg/mL (≈ 4.93 µM)
MIC (P. aeruginosa -03): 8 µg/mL (≈ 4.93 µM)
MIC (P. aeruginosa -02): 8 µg/mL (≈ 4.93 µM)
sensitivity of bacteria compared with paenibacterin of US2013/0164317 ([18]; comparison in words): much greater sensitivity
activity against CRE strains and MRSA strains ([18]; summary of Table 6): very potent activity

CCCCCCCCCCCCCCC(=O)N[C@H](CCCN)C(=O)N[C@H](C(=O)N[C@@H]1C(=O)N[C@H](CCCN)C(=O)N[C@@H](CO)C(=O)N[C@@H](Cc2ccc(O)cc2)C(=O)N[C@H](CCCCN)C(=O)N[C@H](CO)C(=O)N[C@@H]([C@@H](C)CC)C(=O)N2CCC[C@H]2C(=O)N[C@@H]([C@@H](C)CC)C(=O)N2CCC[C@H]2C(=O)N[C@@H]([C@@H](C)CC)C(=O)O[C@@H]1C)C(C)C [Compound B] (Pentadecanoyl-[dOrn]VT[dOrn]SY[dK][dS]IPIPI; ester 3-C; N-terminus assumed)
MIC (E. faecium ATCC 700221): 4 µg/mL (≈ 2.42 µM)
MIC (E. faecium ATCC 2320): 4 µg/mL (≈ 2.42 µM)
MIC (E. faecium BAA-2318): 4 µg/mL (≈ 2.42 µM)
MIC [1]: 8 µg/mL (≈ 4.84 µM)
MIC [2]: 16 µg/mL (≈ 9.68 µM)
MIC [3]: 8 µg/mL (≈ 4.84 µM)
MIC [4]: 16 µg/mL (≈ 9.68 µM)
MIC [5]: 32 µg/mL (≈ 19.4 µM)
MIC (E. faecalis BAA-2365): 4 µg/mL (≈ 2.42 µM)
MIC (E. faecalis ATCC 51575): 8 µg/mL (≈ 4.84 µM)
MIC [6]: 32 µg/mL (≈ 19.4 µM)
MIC [7]: 16 µg/mL (≈ 9.68 µM)
MIC [8]: 16 µg/mL (≈ 9.68 µM)
MIC [9]: 16 µg/mL (≈ 9.68 µM)
MIC [10]: 32 µg/mL (≈ 19.4 µM)

CCCCCCCCCCC(=O)N[C@H](CCCN)C(=O)N[C@H](C(=O)N[C@@H]1C(=O)N[C@H](CCCN)C(=O)N[C@@H](CO)C(=O)N[C@@H](Cc2ccc(O)cc2)C(=O)N[C@H](CCCCN)C(=O)N[C@H](CO)C(=O)N[C@@H]([C@@H](C)CC)C(=O)N2CCC[C@H]2C(=O)N[C@@H]([C@@H](C)CC)C(=O)N2CCC[C@H]2C(=O)N[C@@H]([C@@H](C)CC)C(=O)O[C@@H]1C)C(C)C [Compound C] (Undecanoyl-[dOrn]VT[dOrn]SY[dK][dS]IPIPI; ester 3-C; N-terminus assumed)
MIC (E. faecium ATCC 700221): 8 µg/mL (≈ 5.01 µM)
MIC (E. faecium ATCC 2320): 8 µg/mL (≈ 5.01 µM)
MIC (E. faecium BAA-2318): 8 µg/mL (≈ 5.01 µM)
MIC [1]: 8 µg/mL (≈ 5.01 µM)
MIC [2]: 8 µg/mL (≈ 5.01 µM)
MIC [3]: 8 µg/mL (≈ 5.01 µM)
MIC [4]: 8 µg/mL (≈ 5.01 µM)
MIC [5]: 16 µg/mL (≈ 10 µM)
MIC (E. faecalis BAA-2365): 32 µg/mL (≈ 20 µM)
MIC (E. faecalis ATCC 51575): 32 µg/mL (≈ 20 µM)
MIC [6]: 16 µg/mL (≈ 10 µM)
MIC [7]: 16 µg/mL (≈ 10 µM)
MIC [8]: 16 µg/mL (≈ 10 µM)
MIC [9]: 16 µg/mL (≈ 10 µM)
MIC [10]: 16 µg/mL (≈ 10 µM)

CCCCCCCCCCCCC(=O)N[C@H](CCCN)C(=O)N[C@H](C(=O)N[C@@H]1C(=O)N[C@H](CCCN)C(=O)N[C@@H](CO)C(=O)N[C@@H](Cc2ccccc2)C(=O)N[C@H](CCCCN)C(=O)N[C@H](CO)C(=O)N[C@@H]([C@@H](C)CC)C(=O)N2CCC[C@H]2C(=O)N[C@@H]([C@@H](C)CC)C(=O)N2CCC[C@H]2C(=O)N[C@@H]([C@@H](C)CC)C(=O)O[C@@H]1C)C(C)C [Variant D] (Tridecanoyl-[dOrn]VT[dOrn]SF[dK][dS]IPIPI; ester 3-C; N-terminus assumed)
MIC (E. faecium ATCC 700221): 8 µg/mL (≈ 4.97 µM)
MIC (E. faecium ATCC 2320): 8 µg/mL (≈ 4.97 µM)
MIC (E. faecium BAA-2318): 8 µg/mL (≈ 4.97 µM)
MIC [1]: 8 µg/mL (≈ 4.97 µM)
MIC [2]: 8 µg/mL (≈ 4.97 µM)
MIC [3]: 8 µg/mL (≈ 4.97 µM)
MIC [4]: 8 µg/mL (≈ 4.97 µM)
MIC [5]: 16 µg/mL (≈ 9.95 µM)
MIC (E. faecalis BAA-2365): 8 µg/mL (≈ 4.97 µM)
MIC (E. faecalis ATCC 51575): 8 µg/mL (≈ 4.97 µM)
MIC [6]: 32 µg/mL (≈ 19.9 µM)
MIC [7]: 8 µg/mL (≈ 4.97 µM)
MIC [8]: 16 µg/mL (≈ 9.95 µM)
MIC [9]: 8 µg/mL (≈ 4.97 µM)
MIC [10]: 16 µg/mL (≈ 9.95 µM)
